Data taken from patent US11566030B2, “Substituted 2,6-dihydropyrrolo[3,4-c]pyrazoles as pyruvate kinase activators” (priority 2021, dated 2023).
Where two headings read alike, the source gives them in different places.

Biological target: T1, Human pyruvate kinase R (PKR) (Homo sapiens, UniProt P30613)
T1 construct: Human pyruvate kinase R (PKR), residues 14-574; 6xHis-8xArg-SUMO (N, cleaved yes); host or cells: E. coli
Experiment: Biochemical assay for activation of pyruvate kinase R (Kinase-Glo luminescence, ATP generation)
Conditions: for Emax: read-out: PKR % activation, maximal activation level achieved with each compound relative to the activation level achieved by AG-348 @ 10 μM; for PKR % activation: maximal activation level achieved with each compound relative to the activation level achieved by AG-348 @ 10 μM
Method: Human pyruvate kinase R (PKR), residues 14-574, and human pyruvate kinase M2, residues 1-531, were cloned into expression plasmids and obtained from ATUM Bio (Newark, Calif.). Proteins were translated as fusions with 6×-His,8×-Arg, and SUMO at the N-terminus. A third construct of human PKR was truncated, residues 50-574, and similarly cloned for use in crystallography experiments. All proteins were cloned, expressed in E. coli, and purified using similar protocols. Cells were grown at 30° C. in Luria-Bertani broth supplemented with 0.4% glucose to OD600=0.8 and induced with 0.4 mM IPTG at 16° C. for 18 hours. Cells were harvested by centrifugation, resuspended in 50 mM potassium phosphate pH 8.0, 500 mM NaCl, 25 mM imidazole pH 8.0, and 3 mM β-mercaptoethanol. Cells were lysed using a LM20 microfluidizer from Microfluidics (Westwood, Mass.). The crude lysate was immediately supplemented with 0.2 mM phenylmethylsulfonyl fluoride (PMSF) and centrifuged at 20,000 g for 20 minutes. The soluble fraction was subsequently incubated with 2 mL Ni-NTA (GE Healthcare) per 1,000 ODs for 1 hour at 4° C. Following incubation with the Ni-NTA resin, lysate was removed by pelleting resin at 2,500 g for 3 minutes and washed 3 times with 9 bed volumes of 50 mM potassium phosphate pH 8.0, 500 mM NaCl, 25 mM imidazole, and 3 mM β-mercaptoethanol. Following the batch wash Ni-NTA resin was loaded onto a gravity column and His-tagged protein was eluted with 6 bed volumes of 10 mM Tris/HCl pH 8.0, 200 mM NaCl, 500 mM imidazole, and 3 mM β-mercaptoethanol. Eluted protein was dialyzed overnight against 10 mM Tris/HCl pH 8.0, 200 mM NaCl, and 1 mM DTT and the 6×-His-8×-Arg-SUMO-tag was cleaved using a 20:1 molar ratio of protein: 3C protease. The protein was purified by anion exchange chromatography on a HiTrapQ or MonoQ 10/100 GL column (GE Healthcare) via a linear NaCl gradient and twice by size exclusion chromatography using a Superdex S200 26/60 column (GE Healthcare) run in 10 mM Tris/HCl pH 8.0, 200 mM NaCl, 10 mM MgCl2, 1 mM DTT. Proteins were concentrated to −12 mg/mL for crystallization and flash frozen for storage.
Biochemical assay for Activation of Pyruvate Kinase R
Activation of pyruvate kinase R (PKR) and pyruvate kinase M2 (PKM2) were measured using a luminescence based measurement of ATP generation and the Kinase-Glo luminescent kinase reagent kit.

[1] = PKR AC50 (nM), 0.1 nM PKR, 0.3 mM ADP, 0.1 mM PEP, 1% DMSO

T1 sequence (P30613 14-574): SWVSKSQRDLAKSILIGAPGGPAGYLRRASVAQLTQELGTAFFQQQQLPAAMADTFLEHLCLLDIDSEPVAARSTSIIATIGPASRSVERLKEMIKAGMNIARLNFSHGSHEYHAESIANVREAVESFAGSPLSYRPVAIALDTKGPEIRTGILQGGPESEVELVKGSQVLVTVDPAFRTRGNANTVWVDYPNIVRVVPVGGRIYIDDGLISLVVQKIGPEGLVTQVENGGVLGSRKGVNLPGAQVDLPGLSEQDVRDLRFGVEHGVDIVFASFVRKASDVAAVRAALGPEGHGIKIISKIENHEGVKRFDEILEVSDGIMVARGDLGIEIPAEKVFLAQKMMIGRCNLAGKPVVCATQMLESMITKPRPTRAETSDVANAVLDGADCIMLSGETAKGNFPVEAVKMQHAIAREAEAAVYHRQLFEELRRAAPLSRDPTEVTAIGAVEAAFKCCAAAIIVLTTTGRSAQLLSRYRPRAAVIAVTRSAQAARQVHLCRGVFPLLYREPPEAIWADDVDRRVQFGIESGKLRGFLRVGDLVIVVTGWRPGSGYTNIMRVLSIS

AC50 [1]	Emax	AC50	PKR % activation	Compound
	90%	120 nM		O=C([C@@H](O)c1ncccc1F)N1Cc2cn(S(=O)(=O)c3cnn(CC(F)F)c3)nc2C1 (single isomer, unassigned) [Compound 39]
81 nM	53%			O=C([C@H](O)c1ccccc1F)N1Cc2cn(S(=O)(=O)c3cnn(CC(F)(F)F)c3)nc2C1 (single isomer, unassigned) [Compound 40]
3400 nM			40%	O=C([C@H](O)c1ccccc1F)N1Cc2cn(S(=O)(=O)c3cnn(CC(F)(F)F)c3)nc2C1 (single isomer, unassigned) [Compound 41]
2100 nM	102%			O=C([C@H](CO)c1ncccc1F)N1Cc2cn(S(=O)(=O)c3cnn(CC(F)F)c3)nc2C1 (single isomer, unassigned) [Compound 42]
29 nM	108%			O=C([C@@H](CO)c1ncccc1F)N1Cc2cn(S(=O)(=O)c3cnn(CC(F)F)c3)nc2C1 (single isomer, unassigned) [Compound 43]
> 10000 nM			103%	O=C([C@H](OCCO)c1ccccc1F)N1Cc2cn(S(=O)(=O)c3ccn(CC(F)(F)F)n3)nc2C1 (single isomer, unassigned) [Compound 85]
1.1 nM			0%	O=C([C@H](OCCO)c1ccccc1F)N1Cc2cn(S(=O)(=O)c3ccn(CC(F)(F)F)n3)nc2C1 (single isomer, unassigned) [Compound 86]
	0%			COCCOc1ccccc1[C@@H](CO)C(=O)N1Cc2cn(S(=O)(=O)c3cnn(CC(F)F)c3)nc2C1 (single isomer, unassigned) [Compound 92]
	180%	120 nM		COCCOc1ccccc1[C@H](CO)C(=O)N1Cc2cn(S(=O)(=O)c3cnn(CC(F)F)c3)nc2C1 (single isomer, unassigned) [Compound 93]
	63%	26 nM		O=C([C@H](CO)c1ccccc1OCCO)N1Cc2cn(S(=O)(=O)c3cnn(CC(F)F)c3)nc2C1 (single isomer, unassigned) [Compound 109]
	146%	37 nM		O=C([C@@H](CO)c1ccccc1OCCO)N1Cc2cn(S(=O)(=O)c3cnn(CC(F)F)c3)nc2C1 (single isomer, unassigned) [Compound 110]
> 10000 nM	123%			C[C@@](CO)(C(=O)N1Cc2cn(S(=O)(=O)c3cnn(CC(F)F)c3)nc2C1)c1ccccn1 (single isomer, unassigned) [Compound 123]

More lines, now with the values behind:

Compound	AC50 [1]	Emax	AC50	PKR % activation
C[C@](CO)(C(=O)N1Cc2cn(S(=O)(=O)c3cnn(CC(F)F)c3)nc2C1)c1ccccn1 (single isomer, unassigned) [Compound 10]	116 nM	112%		
O=C([C@H](O)c1ncccc1F)N1Cc2cn(S(=O)(=O)c3ccn(CC(F)F)n3)nc2C1 (single isomer, unassigned) [Compound 28]	3400 nM	85%		
O=C([C@@H](O)c1ncccc1F)N1Cc2cn(S(=O)(=O)c3ccn(CC(F)F)n3)nc2C1 (single isomer, unassigned) [Compound 29]	420 nM	86%		
O=C([C@H](CO)c1ncccc1F)N1Cc2cn(S(=O)(=O)c3ccn(CC(F)F)n3)nc2C1 (single isomer, unassigned) [Compound 31]		45%	3600 nM	
O=C([C@@H](CO)c1ncccc1F)N1Cc2cn(S(=O)(=O)c3ccn(CC(F)F)n3)nc2C1 (single isomer, unassigned) [Compound 32]		114%	40 nM	
O=C([C@H](O)c1ncccc1F)N1Cc2cn(S(=O)(=O)c3cnn(CC(F)F)c3)nc2C1 (single isomer, unassigned) [Compound 38]		121%	1800 nM	
O=C([C@H](CO)c1ccccc1)N1Cc2cn(S(=O)(=O)c3cnn(CC(F)F)c3)nc2C1 [Compound 1, (2S)-1-(2-{[1-(2,2-difluoroethyl)-1H-pyrazol-4-yl]sulfonyl}-2H,4H,5H,6H-pyrrolo[3,4-c]pyrazol-5-yl)-3-hydroxy-2-phenylpropan-1-one]	5.4 nM	97%		
O=C([C@H](CO)c1ccccc1F)N1Cc2cn(S(=O)(=O)c3cnn(CC(F)F)c3)nc2C1 [Compound 2, (2S)-1-(2-{[1-(2,2-difluoroethyl)-1H-pyrazol-4-yl]sulfonyl}-2H,4H,5H,6H-pyrrolo[3,4-c]pyrazol-5-yl)-2-(2-fluorophenyl)-3-hydroxypropan-1-one]	4.7 nM	110%		
O=C([C@H](CO)c1ccccc1F)N1Cc2cn(S(=O)(=O)c3cnn(CC(F)(F)F)c3)nc2C1 [Compound 3, (2S)-2-(2-fluorophenyl)-3-hydroxy-1-(2-{[1-(2,2,2-trifluoroethyl)-1H-pyrazol-4-yl]sulfonyl}-2H,4H,5H,6H-pyrrolo[3,4-c]pyrazol-5-yl)propan-1-one]	7.1 nM	108%		
O=C([C@H](O)c1ccccc1)N1Cc2cn(S(=O)(=O)c3cnn(CC(F)F)c3)nc2C1 [Compound 4, (2R)-1-(2-{[1-(2,2-difluoroethyl)-1H-pyrazol-4-yl]sulfonyl}-2H,4H,5H,6H-pyrrolo[3,4-c]pyrazol-5-yl)-2-hydroxy-2-phenylethan-1-one]		62%	22 nM	
O=C([C@H](CO)c1ccccc1F)N1Cc2cn(S(=O)(=O)c3cnn(CCF)c3)nc2C1 [Compound 5, (2S)-1-(2-{[1-(2-fluoroethyl)-1H-pyrazol-4-yl]sulfonyl}-2H,4H,5H,6H-pyrrolo[3,4-c]pyrazol-5-yl)-2-(2-fluorophenyl)-3-hydroxypropan-1-one]	2.7 nM	88%		
C[C@H](O)[C@@H](C(=O)N1Cc2cn(S(=O)(=O)c3cnn(CC(F)F)c3)nc2C1)c1ccccc1 [Compound 6, (2S,3S)-1-(2-{[1-(2,2-difluoroethyl)-1H-pyrazol-4-yl]sulfonyl}-2H,4H,5H,6H-pyrrolo[3,4-c]pyrazol-5-yl)-3-hydroxy-2-phenylbutan-1-one]		86%	11 nM	
C[C@@H](O)[C@@H](C(=O)N1Cc2cn(S(=O)(=O)c3cnn(CC(F)F)c3)nc2C1)c1ccccc1 [Compound 7, (2S,3R)-1-(2-{[1-(2,2-difluoroethyl)-1H-pyrazol-4-yl]sulfonyl}-2H,4H,5H,6H-pyrrolo[3,4-c]pyrazol-5-yl)-3-hydroxy-2-phenylbutan-1-one]		102%	17 nM	
O=C(N1Cc2cn(S(=O)(=O)c3cnn(CC(F)F)c3)nc2C1)C1(c2ncccc2Cl)COC1 [Compound 8, 3-chloro-2-(3-[2-[1-(2,2-difluoroethyl)pyrazol-4-ylsulfonyl]-4H,6H-pyrrolo[3,4-c]pyrazole-5-carbonyl]oxetan-3-yl)pyridine]	5.7 nM	103%		
O=C([C@H](CO)c1ccccc1Cl)N1Cc2cn(S(=O)(=O)c3cnn(CC(F)F)c3)nc2C1 [Compound 9, (2S)-2-(2-chlorophenyl)-1-[2-[1-(2,2-difluoroethyl)pyrazol-4-ylsulfonyl]-4H,6H-pyrrolo[3,4-c]pyrazol-5-yl]-3-hydroxypropan-1-one]		126%	3 nM	
Cc1c(S(=O)(=O)n2cc3c(n2)CN(C(=O)[C@H](CO)c2ccccc2)C3)cnn1CC(F)F [Compound 11, (2S)-1-(2-{[1-(2,2-difluoroethyl)-5-methyl-1H-pyrazol-4-yl]sulfonyl}-2H,4H,5H,6H-pyrrolo[3,4-c]pyrazol-5-yl)-3-hydroxy-2-phenylpropan-1-one]		92%	5.7 nM	
O=C([C@H](CO)c1ccccc1F)N1Cc2cn(S(=O)(=O)c3ccn(CC(F)F)n3)nc2C1 [Compound 12, (2S)-1-(2-{[1-(2,2-difluoroethyl)-1H-pyrazol-3-yl]sulfonyl}-2H,4H,5H,6H-pyrrolo[3,4-c]pyrazol-5-yl)-2-(2-fluorophenyl)-3-hydroxypropan-1-one]	6.9 nM	121%		
O=C([C@H](CO)c1ccccc1Cl)N1Cc2cn(S(=O)(=O)c3ccn(CC(F)F)n3)nc2C1 [Compound 13, (2S)-2-(2-chlorophenyl)-1-(2-{[1-(2,2-difluoroethyl)-1H-pyrazol-3-yl]sulfonyl}-2H,4H,5H,6H-pyrrolo[3,4-c]pyrazol-5-yl)-3-hydroxypropan-1-one]	7 nM	133%		
